The values below come from ChEMBL document CHEMBL5154923 (J Med Chem, 2022).

Molecules are shown by their SMILES. pEC50, pIC50, pKd: −log10 of the molar value. Calls of active or inactive are those of the source. The rule behind the calls is not given here. Bounds are passed on as bounds.

The target in data set [1] is Casein kinase II subunit alpha (Homo sapiens, UniProt P68400). Put plainly: Binding affinity to wild type full length human CK2alpha1 (1 to 391 residues) expressed in mammalian expression system assessed as change in melting temperature at 10 uM by SYPRO orange dye based DSF assay.
Chain of Casein kinase II subunit alpha (P68400 whole entry, looked up, the tested form may be a part): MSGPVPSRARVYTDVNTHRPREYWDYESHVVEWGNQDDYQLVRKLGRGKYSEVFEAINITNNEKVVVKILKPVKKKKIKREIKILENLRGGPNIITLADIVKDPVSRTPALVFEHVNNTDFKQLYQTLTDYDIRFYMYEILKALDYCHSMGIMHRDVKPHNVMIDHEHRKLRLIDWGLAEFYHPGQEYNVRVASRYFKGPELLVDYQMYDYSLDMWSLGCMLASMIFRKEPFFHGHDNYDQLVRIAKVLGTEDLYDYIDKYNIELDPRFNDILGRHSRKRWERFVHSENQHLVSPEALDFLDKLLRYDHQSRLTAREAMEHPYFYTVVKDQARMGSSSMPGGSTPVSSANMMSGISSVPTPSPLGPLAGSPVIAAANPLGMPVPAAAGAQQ
The target in data set [2] is T1, Serine/threonine-protein kinase 17A (Homo sapiens) (UniProt Q9UEE5).
T1 sequence (whole entry): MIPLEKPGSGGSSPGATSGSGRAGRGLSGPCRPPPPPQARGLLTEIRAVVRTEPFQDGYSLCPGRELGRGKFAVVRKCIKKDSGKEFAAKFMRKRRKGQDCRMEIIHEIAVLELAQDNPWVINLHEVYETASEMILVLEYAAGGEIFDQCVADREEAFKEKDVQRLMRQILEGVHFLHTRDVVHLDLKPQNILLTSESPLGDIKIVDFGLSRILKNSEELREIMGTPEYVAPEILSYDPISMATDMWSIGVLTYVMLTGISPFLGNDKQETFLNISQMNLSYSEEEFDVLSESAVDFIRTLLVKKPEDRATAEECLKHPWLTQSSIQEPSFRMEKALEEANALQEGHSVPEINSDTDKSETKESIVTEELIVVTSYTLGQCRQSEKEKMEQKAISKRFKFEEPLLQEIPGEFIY
Put plainly: Binding affinity to human N-terminal His-tagged/ TEV cleavage fused DRAK1 (39 to 369 residues) expressed in Escherichia coli assessed as change in melting temperature at 10 uM by SYPRO orange dye based DSF assay. (Differential scanning fluorimetry follows unfolding on heating by fluorescence.)

Data set [3] in a line: Binding affinity to wild type full length human CK2alpha2 (1 to 350 residues) expressed in mammalian expression system assessed as change in melting temperature by SYPRO orange dye based DSF assay.
Data set [4] deals with T2, Serine/threonine-protein kinase 17A (Homo sapiens, UniProt Q9UEE5).
T2 sequence (Q9UEE5 whole entry): T1 sequence (whole entry)
Put plainly: Inhibition of human N-terminal His-tagged/ TEV cleavage fused DRAK1 (39 to 369 residues) transfected in HEK293T cells using NanoBRET NanoGlo as substrate incubated for 2 hrs by NanoBRET assay. Format: cell-based. (Bioluminescence resonance energy transfer reports proximity on the nanometre scale.)

Data set [5] has as its system HEK-293T. Put plainly: Cytotoxicity against human HEK293T cells assessed as increase in total apoptotic cells at 10 uM incubated for 18 hrs by Annexin V staining based method. The class given is toxicity, cell-based.
The target of data set [6] is T2, Serine/threonine-protein kinase 17A. Put plainly: Inhibition of human N-terminal His-tagged/ TEV cleavage fused DRAK1 (39 to 369 residues) expressed in Escherichia coli using KKLNRTLSFAEPG peptide as substrate in presence of [gamma-33P]ATP by radiometric based scintillation proximity assay.
Data set [7] deals with T1, Serine/threonine-protein kinase 17A (Homo sapiens). Put plainly: Inhibition of human N-terminal His-tagged/ TEV cleavage fused DRAK1 (39 to 369 residues) expressed in Escherichia coli assessed as gibbs free energy change by isothermal titration calorimetry. (In ITC the heat of successive injections is recorded.)
For data set [8], the target named is T2, Serine/threonine-protein kinase 17A. Put plainly: Binding affinity to human N-terminal His-tagged/ TEV cleavage fused DRAK1 (39 to 369 residues) expressed in Escherichia coli by isothermal titration calorimetry.
The test system of data set [9] is T98G. Put plainly: Induction of morphological changes in human T98G cells assessed as change in cell shape at 12.5 uM incubated for 5 days by microscopy analysis. The class given is functional, cell-based. Particulars: time 5.0 day.
Data set [10] can be described thus: Cytotoxicity against human MRC9 cells assessed as increase in total apoptotic cells at 10 uM incubated for 36 hrs by Annexin V staining based method. The class given is toxicity, cell-based. Particulars: mrc9, 36 h.
Data set [11] in a line: Cytotoxicity against human HEK293T cells assessed as increase in total apoptotic cells incubated for 36 hrs by Annexin V staining based method. The class given is toxicity, cell-based, HEK-293T.
The subject of the next data set is LN-229. Put plainly: Antiproliferative activity against human LN-229 cells assessed as reduction in cell viability after 1 to 7 days by resazurin dye based fluorimetric analysis. Format: functional.
The next data set deals with LN-18. Put plainly: Antiproliferative activity against human LN-18 cells assessed as reduction in cell viability after 1 to 7 days by resazurin dye based fluorimetric analysis. Format: functional.
For data set [12], the system named is HEK-293T. Put plainly: Cytotoxicity against human HEK293T cells at 1 uM incubated for 36 hrs. Format: toxicity, cell-based.
Data set [13] relates to U2OS. Put plainly: Cytotoxicity against human U2OS cells assessed as increase in total apoptotic cells incubated for 36 hrs by Annexin V staining based method. Format: functional, cell-based.
Data set [14] has as its system HEK-293T. Put plainly: Cytotoxicity against human HEK293T cells assessed as increase in total apoptotic cells at 10 uM incubated for 36 hrs by Annexin V staining based method. Format: toxicity, cell-based.
Data set [15] deals with T1, Serine/threonine-protein kinase 17A (Homo sapiens). Put plainly: Inhibition of human N-terminal His-tagged/ TEV cleavage fused DRAK1 (39 to 369 residues) expressed in Escherichia coli assessed as change in enthalpy by isothermal titration calorimetry.
Data set [16] has as its system T98G. Put plainly: Antiproliferative activity against human T98G cells assessed as reduction in cell viability measured after 1 to 7 days by resazurin dye based fluorimetric analysis. The class given is functional.
Data set [17] addresses T1, Serine/threonine-protein kinase 17A (Homo sapiens). Put plainly: Inhibition of human N-terminal His-tagged/ TEV cleavage fused DRAK1 (39 to 369 residues) expressed in Escherichia coli assessed as change in entropy by isothermal titration calorimetry.
The test system of data set [18] is HEK-293T. Put plainly: Induction of morphological changes in human HEK293T cells assessed as mitochondrial damage at 1 to 10 uM incubated for 18 hrs by confocal fluorescence microscopic analysis. The class given is toxicity, cell-based. The note with it: dose 1-10 µM.
The test system of data set [19] is HEK-293T. Put plainly: Induction of morphological changes in human HEK293T cells assessed as microtubule damage at 1 to 10 uM incubated for 18 hrs by confocal fluorescence microscopic analysis. Format: toxicity, cell-based. The note with it: dose 1-10 µM.
The test system of a further data set is D-247MG. Put plainly: Antiproliferative activity against human D-247MG cells assessed as reduction in cell viability after 1 to 7 days by resazurin dye based fluorimetric analysis. The class given is functional.
Data set [20] in a line: Cytotoxicity against human MRC9 cells at 1 uM incubated for 36 hrs. The class given is toxicity, cell-based. The note with it: mrc9, 36 h.
The test system of data set [21] is HEK-293T. Put plainly: Cytotoxicity against human HEK293T cells at 1 uM incubated for 18 hrs. The class given is toxicity, cell-based.
Data set [22] relates to U2OS. Put plainly: Cytotoxicity against human U2OS cells assessed as increase in total apoptotic cells at 10 uM incubated for 36 hrs by Annexin V staining based method. The class given is functional, cell-based.
The nature of data set [23]: Cytotoxicity against human MRC9 cells assessed as increase in total apoptotic cells incubated for 36 hrs by Annexin V staining based method. Format: toxicity, cell-based.
Data set [24] in a line: Induction of morphological changes in human MRC9 cells assessed as mitochondrial damage at 1 to 10 uM incubated for 18 hrs by confocal fluorescence microscopic analysis. Format: toxicity, cell-based. Particulars: mrc9, 18 h, dose 1-10 µM.
The nature of data set [25]: Induction of morphological changes in human MRC9 cells assessed as microtubule damage at 1 to 10 uM incubated for 18 hrs by confocal fluorescence microscopic analysis. Format: toxicity, cell-based. Particulars: mrc9, 18 h, dose 1-10 µM.

`O=C(O)c1ccc2cc1OCCOCCNc1ccn3ncc-2c3n1`: the ΔTm in [1] worked out at 10.6 °C; in data set [2], 7.9 °C; in data set [3], 11.3 °C.
For the compound `O=C(c1ccc2cc1OCCOCCNc1ccn3ncc-2c3n1)N1CCOCC1`, the shift in melting temperature (ΔTm) was 1.1 °C in data set [1], 3 °C in data set [2] and 2.5 °C in [3]. In [4], the pIC50 is below 4.35.
Consider `CN1CCN(C(=O)c2ccc3cc2OCCOCCNc2ccn4ncc-3c4n2)CC1`, for which the ΔTm came to 0.3 °C in data set [1] and 0.9 °C in data set [3]. This compound also gave a pIC50 in data set [4] below 4.35.
As to `C[C@H](NC(=O)c1ccc2cc1OCCOCCNc1ccn3ncc-2c3n1)c1ccncc1`, the Activity entry with HEK-293T [5] is recorded as “Toxic”; in data set [10], “Toxic”; with HEK-293T [12], “Non-Toxic”; with HEK-293T [14], “Toxic”; in the data set on HEK-293T [18], “Non-Toxic”; in the data set with HEK-293T [19], “Non-Toxic”. Moreover, the Activity entry (in data set [20]; in the data set with HEK-293T [21]; in [24]; in [25]) was “Non-Toxic” in each case. For the same compound, the values for the pIC50 in [6] and in data set [4] were 7.82 and 7.15, respectively. For the same compound, in data set [7], the deltaG is -10.1 kcal/mol. Besides, the pKd in data set [8] is 8.05. Further, the figures for the ΔTm in data set [1], in data set [2] and in data set [3] were 1.2 °C, 12.3 °C and 0.1 °C, respectively. Moreover, the result with T98G [9] and in the data set on U2OS [22] was Active. In addition, the EC50 at 36 h in [11] and in data set [23] was above 10000 nM each time. Moreover, the pEC50 with LN-229 is 5.66; in the data set on LN-18, 5.71; in the data set on U2OS [13] it was below 5.00; in the data set on T98G [16] it was 5.63; with D-247MG, 5.90. Besides, the deltaH in data set [15] is -6.78 kcal/mol. Moreover, the deltaS in data set [17] was 11.6 cal/mol.K.
Consider `CC(NC(=O)c1ccc2cc1OCCOCCNc1ccn3ncc-2c3n1)c1ccccc1` (stereo not drawn), for which the figures for the pIC50 in data set [6] and in data set [4] were 7.51 and 7.15, respectively. For the same compound, the ΔTm in data set [1] is -0.9 °C; in [2], 12.1 °C; in [3] it was 1.9 °C.
In the same order, the values of `O=C(NCc1ccccc1)c1ccc2cc1OCCOCCNc1ccn3ncc-2c3n1` are 6.81, 6.77, 1.7 °C, 9.3 °C and 4.9 °C.

Usually ΔTm stands for the change in melting temperature against a reference sample. A word on the pIC50: it is the negative decadic logarithm of the IC50, by convention in mol/L. The pKd is the negative decadic logarithm of the Kd, by convention in mol/L. A higher pKd goes with a low Kd. As a reminder, the EC50 is the concentration needed to bring the measured effect to its halfway point. What is called pEC50 is the negative decadic logarithm of the EC50, by convention in mol/L.
